Source: the NIST ThermoML archive (doi:10.1016/j.fluid.2009.04.009)

Test: xn = mol fraction of the nth substance listed
Conditions: Liquid, Single crystal variable path ultrasonic interferometer operating at 2 MHz

CN(C)C=O [dimethylformamide] + CO
Conditions | speed of sound [m/s]
303 K, Frequency=2 MHz / Mass density=801.17 kg/m3, x1 = 0.4 | 1201.2
303 K, Frequency=2 MHz / Mass density=818.7 kg/m3, x1 = 0.2 | 1133.8
303 K, Frequency=2 MHz / Mass density=853.8 kg/m3, x1 = 0.6 | 1249.2
303 K, Frequency=2 MHz / Mass density=888.88 kg/m3, x1 = 0.8 | 1339.4
303 K, Frequency=2 MHz / Mass density=953.21 kg/m3, x1 = 1 | 1469.8
308 K, Frequency=2 MHz / Mass density=794.11 kg/m3, x1 = 0.4 | 1187.4
308 K, Frequency=2 MHz / Mass density=811.76 kg/m3, x1 = 0.2 | 1126.8
308 K, Frequency=2 MHz / Mass density=852.94 kg/m3, x1 = 0.6 | 1243.4
308 K, Frequency=2 MHz / Mass density=888.23 kg/m3, x1 = 0.8 | 1320
308 K, Frequency=2 MHz / Mass density=952.94 kg/m3, x1 = 1 | 1433.2
313 K, Frequency=2 MHz / Mass density=786.98 kg/m3, x1 = 0.4 | 1169.2
313 K, Frequency=2 MHz / Mass density=798.81 kg/m3, x1 = 0.2 | 1110.8
313 K, Frequency=2 MHz / Mass density=846.15 kg/m3, x1 = 0.6 | 1219.4
313 K, Frequency=2 MHz / Mass density=881.65 kg/m3, x1 = 0.8 | 1313.2
313 K, Frequency=2 MHz / Mass density=952.66 kg/m3, x1 = 1 | 1418
318 K, Frequency=2 MHz / Mass density=773.8 kg/m3, x1 = 0.4 | 1152
318 K, Frequency=2 MHz / Mass density=785.71 kg/m3, x1 = 0.2 | 1097.7
318 K, Frequency=2 MHz / Mass density=833.33 kg/m3, x1 = 0.6 | 1208
318 K, Frequency=2 MHz / Mass density=875 kg/m3, x1 = 0.8 | 1275.4
318 K, Frequency=2 MHz / Mass density=952.38 kg/m3, x1 = 1 | 1402.2
323 K, Frequency=2 MHz / Mass density=754.49 kg/m3, x1 = 0.4 | 1136
323 K, Frequency=2 MHz / Mass density=778.44 kg/m3, x1 = 0.2 | 1095.4
323 K, Frequency=2 MHz / Mass density=803.35 kg/m3, x1 = 0.6 | 1189
323 K, Frequency=2 MHz / Mass density=868.26 kg/m3, x1 = 0.8 | 1257.2
323 K, Frequency=2 MHz / Mass density=952.09 kg/m3, x1 = 1 | 1374.8

CO [methanol] + CN(C)C=O
Conditions | speed of sound [m/s]
303 K, Frequency=2 MHz / Mass density=771.9 kg/m3, x2 = 0 | 1089
308 K, Frequency=2 MHz / Mass density=764.7 kg/m3, x2 = 0 | 1069.6
313 K, Frequency=2 MHz / Mass density=757.4 kg/m3, x2 = 0 | 1057.2
318 K, Frequency=2 MHz / Mass density=750 kg/m3, x2 = 0 | 1033.2
323 K, Frequency=2 MHz / Mass density=718.6 kg/m3, x2 = 0 | 1008
